Data from PMC9317966, “Structure-function analysis of the AMPK activator SC4 and identification of a potent pan AMPK activator” (Biochemical Journal, 2022).

Experiments:
[1] = system: HEK293T/17 cells expressing γ1-R299G AMPK; assay: α-Thr172 phosphorylation immunoblot, HEK293T/17 cells expressing AMP-insensitive γ1 mutant R299G; type: cell-based; details: 2.5 µM
Method: To explore this dose-dependent response, we used HEK293T/17 cells transiently expressing WT γ1AMPK or the AMP-insensitive γ1 mutant R299G (Supplementary Figure S4A). […] One explanation is that 2.5 µM MK-8722 caused indirect activation of AMPK (α-Thr172 phosphorylation) by inducing a metabolic stress leading to rises in AMP/ATP and ADP/ATP ratios. We examined the effect of MK-8722 incubation on C2C12 mitochondrial function (Supplementary Figure S4B–I).
HEK293T/17, HEK293T, COS7, HeLa and PC3 cells (ATCC) were maintained in Dulbecco's Modified Eagle's medium (DMEM; Sigma–Aldrich) supplemented with 10% fetal bovine serum (FBS; Assay Matrix) at 37°C and 5% CO2. Primary hepatocytes from wild type mice were prepared using the collagenase perfusion method and cultured as described previously. […]
(§1) All samples were separated on 12% SDS–PAGE gels and transferred to an Immobilon-FL PVDF membrane (Merck Millipore). […] Immunoblots were visualised on the Odyssey Infrared Imaging System (LI-COR Biosciences) and immunoreactive bands analysed and quantified using Image Studio Software (LI-COR Biosciences).
Lysates were assessed for phosphorylation of AMPKα-Thr172 by immunoblot. n = 3, data presented as mean T172 phosphorylation (arbitrary units) ± SEM. […] (J) Lysates were assessed for total protein content following the respiration assay.

[2] = system: rodent and non-human primate models of T2DM; set-up: method as in PMID 28705990; details: cited from earlier work
[3] = system: mouse primary hepatocytes; assay: Immunoblot of AMPK signalling in mouse primary hepatocytes; type: cell-based; details: 2.5 µM, 60 min
Method: (§2) To evaluate the efficacy of MSG011 in cellulo, we incubated mouse primary hepatocytes with 2.5 µM MSG011 for 60 min and tracked changes in phosphorylation of AMPK α-Thr172 (marker of activation) and the AMPK substrate acetyl-CoA carboxylase (ACC) Ser79 (AMPK signalling marker).
(§3) HEK293T/17, HEK293T, COS7, HeLa and PC3 cells (ATCC) were maintained in Dulbecco's Modified Eagle's medium (DMEM; Sigma–Aldrich) supplemented with 10% fetal bovine serum (FBS; Assay Matrix) at 37°C and 5% CO2. Primary hepatocytes from wild type mice were prepared using the collagenase perfusion method and cultured as described previously. Cultures were incubated with fresh DMEM (no FBS) for 2 h prior to 1 h treatment with MSG011 (dissolved in DMSO) or phenformin (dissolved in H2O). Adherent HEK293T/17 cells at ∼50% confluency were triply transfected with AMPK α1 (pcDNA3.1 vector), β1 (COOH-terminal MYC fusion, pcDNA3.1 vector) and WT γ1 or γ1-R299G mutant (NH2-terminal HA fusion, pMT2 vector) in the presence of FuGENE HD transfection reagent (Promega) as per the manufacturers protocol. […]
as §1

[4] = system: HeLa cells; assay: Immunoblot of AMPK signalling in HeLa cells; type: cell-based; details: 2.5 µM, 1 h
Method: as §2, §3, §1

[5] = system: HEK293T cells; assay: Adenylate energy charge by LC-MS in HEK293T cells; type: cell-based; details: MSG011 up to 40 µM, 1 h
Method: HEK293T cell cultures grown in six-well plates were gently washed in ice cold PBS, lysed with 150 µl of ice cold 0.5 M perchloric acid (Univar) and clarified by centrifugation (16 000g, 3 min, 4°C). An amount of 75 µl of clarified lysate was neutralised with 25 µl of ice cold 2.3 M KHCO3 (Sigma–Aldrich), incubated on ice for 5 min and then centrifuged (16 000g, 3 min, 4°C). Supernatants were collected for analysis by liquid chromatography mass spectrometry–mass spectrometry (LC–MS/MS).
Adenine nucleotide metabolites were measured by LC–MS/MS with modifications to our previously described method. A QTRAP 5500 mass spectrometer (AB Sciex) was operated with the turbo V ion source linked to Prominence UFLCXR LC-20ADXR pumps (Shimadzu), SIL-20AC HT autosampler (Shimadzu) and CTO-20A HPLC column oven (Shimadzu). Both LC and MS instruments were controlled and managed with the Analyst 1.7.1 software (AB Sciex). Nitrogen was provided by a Genius NM3G nitrogen gas generator (PEAK Scientific). […] Data was analysed with MultiQuant 3.0.2 software (AB Sciex) using area under the LC curve. Calibration curves were determined by linear regression of the peak area ratio of each nucleotide and were required to have a correlation coefficient (R^2) of >0.98. […] AEC was calculated from the ratios of [AMP], [ADP] and [ATP] […]

Row | adenylate energy charge (AEC) [5] | Compound | decrease of induced α-Thr172 phosphorylation relative to WT γ1 cells [1] | effect on phosphorylation of α-Thr172 ([1]; 60 min) | cardiac hypertrophy ([2]; lean and diabetic animal models) | key disease hallmarks (systemic glucose clearance, glycaemic control) ([2]; rodent and non-human primate models of T2DM) | phosphorylation of AMPK α-Thr172 [3] | AMPK signalling (phosphorylation of ACC-Ser79 and raptor-Ser792) [4]
1 | – | O[C@@H]1CO[C@H]2[C@@H]1OC[C@H]2Oc1nc2nc(-c3ccc(-c4ccccc4)cc3)c(Cl)cc2[nH]1 [MK-8722, reference compound] | ~55% | largely abrogated | reversible cardiac hypertrophy | robust improvements in key disease hallmarks | – | –
2 | unaffected | CC(=O)NC1CC=C(c2ccc(-c3nc4nc(Oc5ccc(C)c(C(=O)O)c5)[nH]c4cc3Cl)cc2)CC1 (stereo not shown) [MSG011, 5-((5-(4′-Acetamido-2′,3′,4′,5′-tetrahydro-[1,1′-biphenyl]-4-yl)-6-chloro-1H-imidazo[4,5-b]pyridin-2-yl)oxy)-2-methylbenzoic acid] | – | – | – | – | independently of significant net phosphorylation of AMPK α-Thr172 | significantly activated AMPK
